Test results taken from article PMC3784060 (Cancer Chemotherapy and Pharmacology, 2013).
Read-outs that look alike come from different tables or passages of the source.

Columns and labels:
[1] = phase II study in acute leukemia: toxicity (NCI CTCAE version 3.0); format: in vivo, human
Experimental: The study was approved by the Institutional Review Board (IRB) at each participating institution and was conducted in accordance with the Declaration of Helsinki and in compliance with International Conference on Harmonization Good Clinical Practice Guidelines. Written informed consent was obtained from all patients before study enrollment.
Each cycle lasted 21 days. Patient could continue treatment on the study in the absence of disease progression or unacceptable toxicity. The next cycle of therapy could start if non-hematologic toxicity from previous cycle recovered to ≤grade 1, and dose delay of up to 3 weeks was allowed for recovery. Permanent dose reduction was required for any ≥grade 3 clinically significant non-hematologic adverse event (70 mg/m^2 → 50 mg/m^2; 50 mg/m^2 → 40 mg/m^2; 40 mg/m^2 → 30 mg/m^2; 30 mg/m^2 → discontinue). To allow for continued treatment of subjects whose cytopenias were due to leukemia and not due to drug toxicity, subsequent cycles of treatment were allowed if absolute neutrophil count (ANC) ≥0.5 × 10^9/L or for ANC <0.5 × 10^9/L but no more than 20 % below the baseline pretreatment levels and platelet count ≥20 × 10^9/L or platelets <20 × 10^9/L but no more than 20 % below the baseline pretreatment levels. Anti-emetic prophylaxis including serotonin-receptor antagonist, metoclopramide, or prochloperazine with or without dexamethasone was allowed. […] Dexamethasone 20 mg IV was given early if symptoms of cytokine release syndrome were observed.
Response was assessed by bone marrow (BM) examination on day 21 of cycles 1 and 2, and every 6 weeks thereafter until complete remission or progressive disease (PD). Response was determined according to the revised recommendations of the International Working Group (IWG) for AML [33]. Toxicities were graded according to the National Cancer Institute Common Terminology Criteria for Adverse Events (NCI CTCAE), version 3.0 (http://ctep.cancer.gov/protocolDevelopment/electronic_applications/docs/ctcaev3.pdf). Hematologic and chemistry profiles were monitored on day 1 and 2 of each cycle or until resolution of acute toxicities and subsequently at least once a week or more frequently depending on the individual patient’s needs.

[2] = system: HL-60, MOLT-4, K562; settings: 24 or 72 vs. 2 h
Experimental: Primary leukemia cells for in vitro studies were isolated from BM or PB obtained from AML or ALL patients enrolled on a separate University of Maryland, Baltimore, IRB-approved protocol for tissue collection and not treated on this clinical study. The cells were isolated by gradient centrifugation using LSM (Mediatech) according to the manufacturer’s protocol. Cells were used either fresh or after viable freezing (FBS/10 % DMSO). Primary leukemia cells were cultured in RPMI 1640 (Invitrogen, Grand Island, NY, USA) supplemented with 15 % heat-inactivated FBS (HyClone Laboratories Inc., Red Bank, NJ, USA) and 200 mM L-Glutamine (Invitrogen). Leukemia cell lines HL-60 (AML), MOLT-4 (T cell ALL), and K562 (chronic myelogenous leukemia [CML] in erythroid blast transformation) were purchased from American Type Culture Collection (ATCC, Manassas, VA, USA) and cultured in RPMI 1640 (Invitrogen) supplemented with 10 % heat-inactivated FBS (HyClone Laboratories Inc.) and 200 mM L-Glutamine (Invitrogen).

[3] = cited from earlier work
[4] = dinaciclib-related hematologic toxicity

CCc1cnn2c(NCc3ccc[n+]([O-])c3)cc(N3CCCC[C@H]3CCO)nc12 [Dinaciclib]
Grade ≥3 fatigue, patients ([1]; 4 patients): 20%
patients with grade ≥3 treatment-related adverse events ([1]; 15 of 20 patients): 75%
TLS-associated hyperkalemia, patients ([1]; Cairo-Bishop criteria, cycle 1): 25%
TLS-associated hyperphosphatemia, patients ([1]; Cairo-Bishop criteria, cycle 1): 30%
TLS-associated hyperuricemia, patients ([1]; Cairo-Bishop criteria, cycle 1): 10%
TLS-associated hypocalcemia, patients ([1]; Cairo-Bishop criteria, cycle 1): 25%
patients with at least one significant TLS-associated laboratory abnormality ([1]; Cairo-Bishop criteria, cycle 1): half of the patients
Acute renal failure, All (%) ([1]; Cycle 1 n = 20): 2 (10) patients (%)
Acute renal failure, Grade ≥3 ([1]; Cycle 1 n = 20): 2 patients
Anorexia, All (%) ([1]; Cycle 1 n = 20): 1 (5) patients (%)
Bacteremia, All (%) ([1]; Cycle 1 n = 20): 2 (10) patients (%)
Bacteremia, Grade ≥3 ([1]; Cycle 1 n = 20): 2 patients
Cytokine release sy, All (%) ([1]; Cycle 1 n = 20): 2 (10) patients (%)
Dehydration, All (%) ([1]; Cycle 1 n = 20): 1 (5) patients (%)
Dehydration, Grade ≥3 ([1]; Cycle 1 n = 20): 1 patients
Diarrhea, All (%) ([1]; Cycle 1 n = 20): 14 (70) patients (%)
Diarrhea, Grade ≥3 ([1]; Cycle 1 n = 20): 1 patients
Fatigue, All (%) ([1]; Cycle 1 n = 20): 6 (30) patients (%)
Fatigue, Grade ≥3 ([1]; Cycle 1 n = 20): 2 patients
Hyperbilirubinemia, All (%) ([1]; Cycle 1 n = 20): 2 (10) patients (%)
Hyperglycemia, All (%) ([1]; Cycle 1 n = 20): 4 (20) patients (%)
Hyperglycemia, Grade ≥3 ([1]; Cycle 1 n = 20): 2 patients
Hyperkalemia, All (%) ([1]; Cycle 1 n = 20): 3 (15) patients (%)
Hyperkalemia, Grade ≥3 ([1]; Cycle 1 n = 20): 2 patients
Hyperphosphatemia, All (%) ([1]; Cycle 1 n = 20): 5 (25) patients (%)
Hyperphosphatemia, Grade ≥3 ([1]; Cycle 1 n = 20): 1 patients
Hypertension, All (%) ([1]; Cycle 1 n = 20): 1 (5) patients (%)
Hypoalbuminemia, All (%) ([1]; Cycle 1 n = 20): 4 (20) patients (%)
Hypocalcemia, All (%) ([1]; Cycle 1 n = 20): 6 (30) patients (%)
Hypocalcemia, Grade ≥3 ([1]; Cycle 1 n = 20): 1 patients
Hypokalemia, All (%) ([1]; Cycle 1 n = 20): 2 (10) patients (%)
Hyponatremia, All (%) ([1]; Cycle 1 n = 20): 2 (10) patients (%)
Hyponatremia, Grade ≥3 ([1]; Cycle 1 n = 20): 1 patients
Hypotension, All (%) ([1]; Cycle 1 n = 20): 6 (30) patients (%)
Hypotension, Grade ≥3 ([1]; Cycle 1 n = 20): 1 patients
Increased ALT, All (%) ([1]; Cycle 1 n = 20): 4 (20) patients (%)
Increased AST, All (%) ([1]; Cycle 1 n = 20): 8 (40) patients (%)
Increased AST, Grade ≥3 ([1]; Cycle 1 n = 20): 3 patients
Increased LDH, All (%) ([1]; Cycle 1 n = 20): 2 (10) patients (%)
Increased LDH, Grade ≥3 ([1]; Cycle 1 n = 20): 2 patients
Increased creatinine, All (%) ([1]; Cycle 1 n = 20): 3 (15) patients (%)
Increased creatinine, Grade ≥3 ([1]; Cycle 1 n = 20): 1 patients
Nausea, All (%) ([1]; Cycle 1 n = 20): 8 (40) patients (%)
Nausea, Grade ≥3 ([1]; Cycle 1 n = 20): 1 patients
Pneumonia, All (%) ([1]; Cycle 1 n = 20): 2 (10) patients (%)
Pneumonia, Grade ≥3 ([1]; Cycle 1 n = 20): 2 patients
Sinus Tachycardia, All (%) ([1]; Cycle 1 n = 20): 2 (10) patients (%)
Stomatitis, All (%) ([1]; Cycle 1 n = 20): 1 (5) patients (%)
Syncope, All (%) ([1]; Cycle 1 n = 20): 1 (5) patients (%)
Syncope, Grade ≥3 ([1]; Cycle 1 n = 20): 1 patients
Tumor lysis sy, All (%) ([1]; Cycle 1 n = 20): 3 (15) patients (%)
Tumor lysis sy, Grade ≥3 ([1]; Cycle 1 n = 20): 3 patients
Vomiting, All (%) ([1]; Cycle 1 n = 20): 9 (45) patients (%)
Dehydration, All (%) ([1]; Cycle 2 n = 10): 1 (10) patients (%)
Diarrhea, All (%) ([1]; Cycle 2 n = 10): 7 (70) patients (%)
Diarrhea, Grade ≥3 ([1]; Cycle 2 n = 10): 1 patients
Fatigue, All (%) ([1]; Cycle 2 n = 10): 2 (20) patients (%)
Fatigue, Grade ≥3 ([1]; Cycle 2 n = 10): 1 patients
Hyperbilirubinemia, All (%) ([1]; Cycle 2 n = 10): 1 (10) patients (%)
Hyperkalemia, All (%) ([1]; Cycle 2 n = 10): 1 (10) patients (%)
Hyperphosphatemia, All (%) ([1]; Cycle 2 n = 10): 1 (10) patients (%)
Hypoalbuminemia, All (%) ([1]; Cycle 2 n = 10): 1 (10) patients (%)
Hypotension, All (%) ([1]; Cycle 2 n = 10): 2 (20) patients (%)
Increased ALT, All (%) ([1]; Cycle 2 n = 10): 1 (10) patients (%)
Increased AST, All (%) ([1]; Cycle 2 n = 10): 1 (10) patients (%)
Nausea, All (%) ([1]; Cycle 2 n = 10): 3 (30) patients (%)
Pneumonia, All (%) ([1]; Cycle 2 n = 10): 1 (10) patients (%)
Stomatitis, All (%) ([1]; Cycle 2 n = 10): 1 (10) patients (%)
Stomatitis, Grade ≥3 ([1]; Cycle 2 n = 10): 1 patients
Syncope, All (%) ([1]; Cycle 2 n = 10): 1 (10) patients (%)
Syncope, Grade ≥3 ([1]; Cycle 2 n = 10): 1 patients
Vomiting, All (%) ([1]; Cycle 2 n = 10): 2 (20) patients (%)
Anorexia, All (%) ([1]; Cycle 3 n = 6): 1 (17) patients (%)
Cytokine release sy, All (%) ([1]; Cycle 3 n = 6): 1 (17) patients (%)
Cytokine release sy, Grade ≥3 ([1]; Cycle 3 n = 6): 1 patients
Diarrhea, All (%) ([1]; Cycle 3 n = 6): 2 (33) patients (%)
Fatigue, All (%) ([1]; Cycle 3 n = 6): 1 (17) patients (%)
Fatigue, Grade ≥3 ([1]; Cycle 3 n = 6): 1 patients
Hypertension, All (%) ([1]; Cycle 3 n = 6): 1 (17) patients (%)
Increased ALT, All (%) ([1]; Cycle 3 n = 6): 1 (17) patients (%)
Nausea, All (%) ([1]; Cycle 3 n = 6): 1 (17) patients (%)
Vomiting, All (%) ([1]; Cycle 3 n = 6): 2 (33) patients (%)
≥grade 3 anemia, patients [1, 4]: 25%
≥grade 3 febrile neutropenia, patients [1, 4]: 25%
≥grade 3 leukopenia, patients [1, 4]: 40%
≥grade 3 neutropenia, patients [1, 4]: 10%
≥grade 3 thrombocytopenia, patients [1, 4]: 20%
Grade 1 and 2 diarrhea, patients ([1]; in vivo): 70%
growth inhibitory and apoptosis-inducing effect of prolonged exposure [2]: more potent growth inhibitory and apoptosis-inducing effect
recommended phase II dose (RPTD) ([3]; 2-h infusion on days 1, 8, 15 every 28 days): 12 mg/m^2
recommended phase II dose (RPTD) ([3]; 2-h infusion once every 21 days): 50 mg/m^2
average dinaciclib concentration ([3]; 8-h continuous infusion, 7.4–50 mg/m^2, preliminary): 200–1,031 nM
average dinaciclib concentration ([3]; 24-h continuous infusion, 7.4–14.6 mg/m^2, preliminary): 82.3 to 184 nM
